This note sets out measurements from ChEMBL document CHEMBL4266057, “Optimization of Preclinical Metabolism for Somatostatin Receptor Subtype 5-Selective Antagonists” (ACS Med Chem Lett, 2018).

What is called AUC is concentration integrated over time. What is called Cmax is the maximum level reached in the sampled fluid or tissue. The half-life is how long it takes for the measured level to halve. One may read the clearance as a measure of how efficiently the substance is removed, as volume per time. By bioavailability is commonly meant dose-corrected exposure relative to a reference, in per cent.

Data set [1] is described as follows: in vitro. As to conditions: rhesus monkey, liver microsomes. For orientation: Microsomes from liver hold many membrane-bound enzymes, among them those of drug oxidation.
A short description of data set [2]: in vitro. The following applies: human, liver microsomes.
The nature of data set [3]: Drug level in rhesus monkey plasma treated with 4-(8-((2,6-diethoxy-4'-fluorobiphenyl-4-yl)methyl)-3-oxo-2,8-diazaspiro[4.5]decan-2-yl)benzoic acid at 50 mg/kg, po qd for 5 days by HPLC analysis. It counts as ADME, organism-based, Macaca mulatta. The following applies: in vivo, 120 h.
Data set [4] is described as follows: in vivo. As to conditions: Sprague-Dawley, rat.
Data set [5] can be described thus: Metabolic stability in rat liver microsomes at 1 uM after 30 mins. It counts as ADME, microsome. The following applies: read-out: Stability.
The nature of data set [6]: Drug metabolism in rhesus monkey plasma assessed as hydroxylation of benzoic acid at 50 mg/kg, po qd for 5 days by HPLC analysis. It counts as ADME, organism-based, Macaca mulatta. As to conditions: in vivo, 120 h.
A short description of data set [7]: Metabolic stability in Beagle dog liver microsomes at 1 uM after 30 mins. It counts as ADME, Canis lupus familiaris, microsome. As to conditions: read-out: Stability.
Data set [8] can be described thus: Drug metabolism in rhesus monkey plasma assessed as glucuronidation of carboxylic acid at 50 mg/kg, po qd for 5 days by HPLC analysis. It counts as ADME, organism-based, Macaca mulatta. As to conditions: in vivo, 120 h.
Data set [9] is described as follows: Drug metabolism in rhesus monkey plasma assessed as oxidation of biphenyl ring at 50 mg/kg, po qd for 5 days by HPLC analysis. The following applies: in vivo, 120 h. It counts as ADME, organism-based, Macaca mulatta.
The nature of data set [10]: Fraction unbound in high fat diet fed C57BL/6N mouse plasma at 3 mg/kg, po after 3 hrs. It counts as ADME, organism-based. The following applies: in vivo.
Data set [11] in a line: Drug metabolism in rhesus monkey plasma assessed as de-ethylation of ethoxyl group at 50 mg/kg, po qd for 5 days by HPLC analysis. It counts as ADME, organism-based, Macaca mulatta. The following applies: in vivo, 120 h.
A short description of data set [12]: in vivo. As to conditions: rhesus monkey, plasma, po, 5 mg/kg.
The nature of data set [13]: in vivo. As to conditions: rhesus monkey, po, 5 mg/kg.
The nature of data set [14]: in vivo. The following applies: Sprague-Dawley, rat. The source holds these as a separate data set.
Data set [15] in a line: in vivo. As to conditions: rhesus monkey, po, 5 mg/kg. The source holds these as a separate data set.
Data set [16] is described as follows: in vivo. As to conditions: Sprague-Dawley, rat, iv, 1 mg/kg.
Data set [17] is described as follows: in vivo. The following applies: Sprague-Dawley, rat, po, 2 mg/kg.

Take `Cc1cc(-c2ccc(F)c(F)c2F)c(CN2CCC3(CC2)CC(=O)N(c2ccc(C(=O)O)cc2)C3)cc1C(F)(F)F`: the remaining at 0.5 h, 1 µM in [1] was determined as 94%; in [2], 100%.
As for `CCOc1cc(CN2CCC3(CC2)CC(=O)N(c2ccc(C(=O)O[C@@H]4O[C@H](C(=O)O)[C@@H](O)[C@H](O)[C@H]4O)cc2)C3)cc(OCC)c1-c1ccc(F)cc1`, in [3], the Drug metabolism result is reported as “Metabolite_Detected”.
Turning to `Cc1cccc2c(CN3CCC4(CC3)CC(=O)N(c3ccc(C(=O)O)cc3)C4)cn(C(C)C)c12`, the figures for the remaining at 0.5 h, 1 µM in data set [1] and in data set [2] were 95% and 100%, respectively.
In data set [4], `CCOc1cc(CN2CCC3(CC2)CC(=O)N(c2ccc(C(=O)O)cc2)C3)cc(OCC)c1-c1ccc(F)cc1` registered an AUC of 1.67 µM·h. Moreover, the remaining at 0.5 h, 1 µM in data set [5] is over 80%; in data set [7], over 80%; in [1], 28%; in data set [2], 92%. In addition, the Drug metabolism entry in data set [6], in data set [8], in data set [9] and in data set [11] was “Metabolite_Detected” in each case. The “Cp(f)” value in data set [10] turned out to be 16 nM.
`O=C(O)c1ccc(N2CC3(CCN(Cc4cc(C(F)(F)F)ccc4C4CC4)CC3)OC2=O)cc1`: the AUC came to 8.5 µM·h in data set [4] and 31.2 µM·h in data set [15]. This compound came in with a concentration at 24 h in data set [12] of 470 nM. The concentration in data set [13] peaked (Cmax) at 2990 nM. The same compound had a half-life in data set [14] of 1.6 h. Further, the remaining at 0.5 h, 1 µM in [1] turned out to be 94%; in data set [2], 99%. For the same compound, in [16], the clearance came out at 3.4 mL/min/kg. The bioavailability in data set [17] was found to be 85%.
